Results on 20 compounds are retold here after US6492416B1, “4,5-diaryl-3(2H)-furanone derivatives as cyclooxygenase-2 inhibitors” (Pacific Corporation, priority 1999, dated 2002).

Converted amounts (≈) assume the structure as drawn.

One series has as its target T1, COX-1 (Mus musculus, UniProt P22437).
T1 sequence (P22437 27-602): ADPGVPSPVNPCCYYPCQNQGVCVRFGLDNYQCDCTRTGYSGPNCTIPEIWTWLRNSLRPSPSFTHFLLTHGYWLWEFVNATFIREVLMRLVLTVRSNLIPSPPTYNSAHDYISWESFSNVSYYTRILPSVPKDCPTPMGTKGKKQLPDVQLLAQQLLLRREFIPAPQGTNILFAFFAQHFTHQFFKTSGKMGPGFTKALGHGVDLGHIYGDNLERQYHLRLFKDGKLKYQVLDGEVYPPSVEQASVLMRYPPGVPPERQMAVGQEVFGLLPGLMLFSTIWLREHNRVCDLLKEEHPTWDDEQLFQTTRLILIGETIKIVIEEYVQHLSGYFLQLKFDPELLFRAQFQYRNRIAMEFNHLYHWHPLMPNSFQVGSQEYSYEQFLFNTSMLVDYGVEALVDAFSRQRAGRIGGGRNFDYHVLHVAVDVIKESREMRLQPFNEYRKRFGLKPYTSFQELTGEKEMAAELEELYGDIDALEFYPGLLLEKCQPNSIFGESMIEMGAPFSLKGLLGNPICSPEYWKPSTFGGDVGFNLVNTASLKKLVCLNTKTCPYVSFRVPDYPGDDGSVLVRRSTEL
Briefly: Evaluation of COX-1 activity: PGE2 formation in mouse peritoneal macrophages without aspirin and LPS treatment. Conditions: for IC50: read-out: IC50, μg/ml COX-1 (converted). In kind it is cell-based. The procedure:
(§1) Evaluation of in vitro COX-2 and COX-1 Activity [J. Pharmacol. Exp. Ther. 166, 96 (1969)]
(§2) The abdominal skin of a C57BL/6 mouse was sanitized with 70% aqueous ethanol, and was removed without damaging the peritoneum. 5 ml of cold phosphate buffer solution (PBS) was then injected into the abdominal cavity. After a minute, the peritoneal fluid containing the macrophages was collected using a syringe and a needle. The collected fluid was centrifuged for 5 min at 1500 rpm to afford pellets of cells. The pellets were then dispersed in the RPMI-1640 culture medium containing 100 units/ml penicillin and 100 μg/ml streptomycin.
(§3) The pellets dispersed as above were treated with 500 μM aspirin in order to knock out the activity of the COX-1 enzymes in the cells. The suspension was then diluted with the RPMI-1640 medium to contain 1×10^6 cells/ml. 100 μl of the suspension was added to each well of a 96-well ELISA plate. Then the plate was incubated for 2 hrs at 37° C. under 5% CO2 in order to fix the macrophages onto the plate. The cells, which were not fixed onto the plate were removed by washing with PBS two times. The purity of macrophages obtained thereby was confirmed by differential counting. The RPMI-1640 medium containing 3% fetal bovine serum albumin was added to each well of the plate, which was followed by stimulation with 10 μg/ml lipopolysaccharide (LPS). Usually 5×10^5 cells/ml were present by this preparation. The LPS-treated suspensions were incubated for 16 hours at 37° C. under 5% CO2 to induce COX-2. Then the culture medium was removed and the macrophages were washed two times with PBS. Then 130 μl RPMI-1640 culture medium was added to each well and the macrophage solutions were incubated at 37° C. for 10 minutes, which was followed by the treatment with 10 μM arachidonic acid and an appropriate amount of compounds of this invention. The plate was incubated for another 10 minutes. The upper solution was collected using a micropipette and was subjected to determination of PGE2 amount in the solution. The amount of PGE2 present in the collected solution was determined either by a known radio-immuno assay or by a known enzyme-immunoassay [Methods in Enzymol. 86, 258 (1982); Methods in Enzymol. 187, 24 (1990)]. The extent of COX-2 inhibition by a compound of the present invention was calculated by assuming, that the amount of PGE2 formed with the treatment of 10 μg/ml arachidonic acid was used is the maximum possible amount of PGE2, and that the amount of PGE2 formed without the treatment of arachidonic acid is the minimum possible amount of PGE2.
In the evaluation of COX-1 inhibitory activity by a compound of the present invention, the same procedures employed for evaluation of COX-2 activity were employed, except omitting the following two steps: 1) the treatment with aspirin for knockout of COX-1 activity and 2) treatment with LPS for induction of COX-2.
(§4) In order to determine IC50 for a compound of this invention, enzymatic activities were measured at multiple concentrations of compounds of this invention around IC50 of the compound. Usually enzymatic activities at 4˜5 concentrations were measured to calculate out IC50 for a compound of this invention.

The target of the next series is T2, COX-2 (Mus musculus, UniProt Q05769).
T2 sequence (Q05769 18-604): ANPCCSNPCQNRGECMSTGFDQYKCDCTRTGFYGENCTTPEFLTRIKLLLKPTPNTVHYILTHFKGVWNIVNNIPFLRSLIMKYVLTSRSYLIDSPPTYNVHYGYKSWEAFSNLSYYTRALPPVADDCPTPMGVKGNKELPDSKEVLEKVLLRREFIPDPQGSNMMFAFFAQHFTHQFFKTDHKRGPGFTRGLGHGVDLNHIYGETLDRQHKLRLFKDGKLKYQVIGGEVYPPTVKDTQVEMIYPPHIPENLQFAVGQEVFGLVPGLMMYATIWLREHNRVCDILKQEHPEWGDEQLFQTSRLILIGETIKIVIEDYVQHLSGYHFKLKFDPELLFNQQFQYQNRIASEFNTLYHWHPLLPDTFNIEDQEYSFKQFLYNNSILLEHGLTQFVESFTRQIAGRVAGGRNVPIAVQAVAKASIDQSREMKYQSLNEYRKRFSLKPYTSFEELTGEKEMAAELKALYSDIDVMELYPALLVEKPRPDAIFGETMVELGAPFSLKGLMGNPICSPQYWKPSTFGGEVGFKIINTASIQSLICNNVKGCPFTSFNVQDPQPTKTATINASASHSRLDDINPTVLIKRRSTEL
The experiment in a line: Evaluation of COX-2 activity: PGE2 formation in aspirin-treated, LPS-stimulated mouse peritoneal macrophages. Conditions: for IC50: read-out: IC50, μg/ml COX-2 (converted). In kind it is cell-based. The procedure: as §1, §2
as §3, with “The purity of macrophages obtained thereby was confirmed by differential counting.” left out, “Usually 5×10^5 cells/ml were present by this preparation.” left out
as §4

As for `CCC1(C)OC(c2ccc(S(C)(=O)=O)cc2)=C(c2cccc(OC)c2)C1=O` (stereo not drawn) [Example 200], the IC50 on COX-1 was 77.6 µM; at COX-2 it was 0.776 µM. `CS(=O)(=O)c1ccc(C2=C(c3cccc(F)c3)C(=O)C3(CCOCC3)O2)cc1` [Example 261, 3-(3-Fluorophenyl)-2-{4-(methylsulfonyl)phenyl}-1,8-dioxa-spiro[4,5]dec-2-en-4-one]: the “IC50, μg/ml COX-1” value on COX-1 came to 300 µg/mL (≈ 745 µM). In addition, the “IC50, μg/ml COX-2” value against COX-2 came out at 1 µg/mL (≈ 2.48 µM).

`CCCc1ccc(C2=C(c3ccc(S(C)(=O)=O)cc3)OC(C)(CC)C2=O)cc1` (stereo not drawn) [Example 202]: the figures for the IC50 on COX-1 and on COX-2 were 7.53 µM and 0.0753 µM, respectively. Take `CC1(C)OC(c2ccc(S(C)(=O)=O)cc2)=C(c2ccccc2Cl)C1=O` [Example 69]: the melting point was in the range of 100 to 103 °C. Also, on COX-1, the “IC50, μg/ml COX-1” value came to 50 µg/mL (≈ 133 µM).

With `CC1(C)OC(c2ccc(S(C)(=O)=O)c(Br)c2)=C(c2cc(F)ccc2F)C1=O` [Example 344], on COX-1, the “IC50, μg/ml COX-1” value was 200 µg/mL (≈ 437 µM). The “IC50, μg/ml COX-2” value at COX-2 is 0.08 µg/mL (≈ 0.175 µM). On to `CCC1(C)OC(c2ccc(S(C)(=O)=O)cc2)=C(c2cccc(C(C)C)c2)C1=O` (stereo not drawn) [Example 201], for which the IC50 was 50.2 µM at COX-1 and 0.251 µM on COX-2. Take `CC1(C)OC(c2ccc(S(C)(=O)=O)cc2)=C(c2ccsc2)C1=O` [Example 17, 2,2-Dimethyl-5-{4-(methylsulfonyl)phenyl}4-(3-thienyl)-3(2H)-furanone]: at COX-1, the “IC50, μg/ml COX-1” value is 30 µg/mL (≈ 86.1 µM). The “IC50, μg/ml COX-2” value against COX-2 worked out at 0.2 µg/mL (≈ 0.574 µM). Consider `CCNS(=O)(=O)c1ccc(C2=C(c3ccccc3)C(=O)C(C)(C)O2)cc1Cl` [Example 373, 5-{3-Chloro-4-(N-ethylaminosulfonyl)phenyl}-2,2-dimethyl-4-phenyl-3(2H)-furanone], for which the “IC50, μg/ml COX-1” value against COX-1 is 600 µg/mL (≈ 1480 µM). Also, on COX-2, the “IC50, μg/ml COX-2” value stood at 0.3 µg/mL (≈ 0.739 µM). `CC(C)c1ccc(C2=C(c3ccc(S(C)(=O)=O)cc3)OC3(CCCC3)C2=O)cc1` [Example 54, 3-(4-Isopropylphenyl)-2-{4-(methylsulfonyl)phenyl}-1-oxa-spiro[4,4]non-2-en-4-one]: the “IC50, μg/ml COX-2” value at COX-2 turned out to be 0.05 µg/mL (≈ 0.122 µM). In the case of `CCC1(C)OC(c2ccc(S(C)(=O)=O)cc2)=C(c2ccc(C)s2)C1=O` (stereo not drawn) [Example 225], the “IC50, μg/ml COX-1” value at COX-1 is 3 µg/mL (≈ 7.97 µM). The “IC50, μg/ml COX-2” value on COX-2 stood at 0.03 µg/mL (≈ 0.0797 µM). On to `CC1(C)OC(c2ccc(S(C)(=O)=O)c(Br)c2)=C(c2cccc(Cl)c2)C1=O` [Example 342], for which, on COX-1, the “IC50, μg/ml COX-1” value amounted to 30 µg/mL (≈ 65.8 µM). In addition, on COX-2, the “IC50, μg/ml COX-2” value is 0.02 µg/mL (≈ 0.0439 µM). Consider `CCC1(C)OC(c2ccc(S(C)(=O)=O)cc2)=C(c2cccnc2)C1=O` (stereo not drawn) [Example 36, 2-Ethyl-2-methyl-5-{4-(methylsulfonyl)phenyl}-4-(3-pyridyl)-3(2H)-furanone], for which, on COX-1, the “IC50, μg/ml COX-1” value worked out at 50 µg/mL (≈ 140 µM). Also, the “IC50, μg/ml COX-2” value against COX-2 is 0.2 µg/mL (≈ 0.56 µM). For `CC(O)c1ccc(C2=C(c3ccc(S(C)(=O)=O)cc3)OC(C)(C)C2=O)cc1` (stereo not drawn) [Example 111, 2,2-Dimethyl-4-{4-(1-hydroxyethyl)phenyl}-5-{4-(methylsulfonyl)phenyl}-3(2H)-furanone] the same measures were 50 µg/mL (≈ 129 µM) and 0.3 µg/mL (≈ 0.776 µM). As to `CC1(C)OC(c2ccc(S(C)(=O)=O)c(Cl)c2)=C(c2ccccc2)C1=O` [Example 357, 5-{3-Chloro-4(methylsulfonyl)phenyl}-2,2-dimethyl-4-phenyl-3(2H)-furanone], the “IC50, μg/ml COX-1” value against COX-1 was 30 µg/mL (≈ 79.6 µM). In addition, at COX-2, the “IC50, μg/ml COX-2” value is 0.05 µg/mL (≈ 0.133 µM). Taken in the same sequence, the figures for `Cc1cc(C2=C(c3cc(F)cc(F)c3)C(=O)C(C)(C)O2)ccc1S(N)(=O)=O` [Example 384, 5-{4-(Aminosulfonyl)-3-methylphenyl}-4-(3-difluorophenyl)-2,2-dimethyl-3(2H)-furanone] were 30 µg/mL (≈ 76.3 µM) and 0.08 µg/mL (≈ 0.203 µM).

Regarding `COc1cccc(C2=C(c3ccc(S(C)(=O)=O)cc3)OC(C)(C)C2=O)c1` [Example 95], the “IC50, μg/ml COX-1” value on COX-1 was determined as 30 µg/mL (≈ 80.5 µM). Further, at COX-2, the “IC50, μg/ml COX-2” value came to 0.1 µg/mL (≈ 0.268 µM).

Take `Cc1cc(C2=C(c3cc(F)cc(F)c3)C(=O)C(C)(C)O2)ccc1S(C)(=O)=O` [Example 382, 4-(3,5-Difluorophenyl)-2,2-dimethyl-5-{3-methyl-4-(methylsulfonyl)phenyl}-3(2H)-furanone]: the “IC50, μg/ml COX-1” value against COX-1 was found to be 200 µg/mL (≈ 510 µM). Also, at COX-2, the “IC50, μg/ml COX-2” value was 0.08 µg/mL (≈ 0.204 µM). Taken in the same sequence, the figures for `CC1(C)OC(c2ccc(S(C)(=O)=O)cc2)=C(c2cccs2)C1=O` [Example 113] were 3 µg/mL (≈ 8.61 µM) and 0.03 µg/mL (≈ 0.0861 µM).

In the case of `CCC1(CC)OC(c2ccc(S(C)(=O)=O)cc2)=C(c2ccc(C(C)=O)cc2)C1=O` [Example 49, 4-(4-Acetylphenyl)-2,2-diethyl-5-{4-(methylsulfonyl)phenyl}-3(2H)-furanone], at COX-1, the “IC50, μg/ml COX-1” value is 30 µg/mL (≈ 72.7 µM). The “IC50, μg/ml COX-2” value at COX-2 worked out at 0.3 µg/mL (≈ 0.727 µM). Consider `CC1(C)OC(c2ccc(S(C)(=O)=O)cc2)=C(c2ccc(F)c(F)c2)C1=O` [Example 80], for which the melting point was determined as 162 °C. For the same compound, the “IC50, μg/ml COX-1” value against COX-1 worked out at 5 µg/mL (≈ 13.2 µM).
